Test [1] can be described thus: Inhibition of DNA polymerase beta.
Test [2] can be described thus: Inhibition of DNA polymerase alpha at 200 ug/ml.
Test [3] can be described thus: Inhibition of RNA polymerase at 200 ug/ml.
A short description of test [4]: Inhibition of HIV2 reverse transcriptase. More on the design: species or system Human immunodeficiency virus 2.
Test [5] in a line: Inhibition of DNA dependent DNA polymerase.
The target of test [6] is Human immunodeficiency virus type 1 reverse transcriptase (Human immunodeficiency virus 1, UniProt Q72547). Kind of test: Inhibition of HIV1 reverse transcriptase.
Test [7] concerns Human immunodeficiency virus 1. In words: Inhibition of HIV1 reverse transcriptase mutant at 200 ug/ml.
The nature of test [8]: Inhibition of HIV1 reverse transcriptase mutant. Set-up: species or system Human immunodeficiency virus 1.
A short description of test [9]: Inhibition of DNA dependent DNA polymerase at 200 ug/ml.
Test [10] in a line: Inhibition of RNaseH at 200 ug/ml.
Test [11] has as its target Human immunodeficiency virus type 1 reverse transcriptase (Human immunodeficiency virus 1) (UniProt Q72547). Kind of test: Inhibition of HIV1 reverse transcriptase at 200 ug/ml.
Test [12] can be described thus: Inhibition of DNA polymerase beta at 200 ug/ml.
In test [13] the test system is Avian myeloblastosis virus. In words: Inhibition of AMV reverse transcriptase at 200 ug/ml.
A short description of test [14]: Inhibition of RNaseH.
The nature of test [15]: Inhibition of AMV reverse transcriptase. Set-up: species or system Avian myeloblastosis virus.
The nature of test [16]: Inhibition of DNA polymerase alpha.
Test [17] deals with Human immunodeficiency virus 2. In words: Inhibition of HIV2 reverse transcriptase at 200 ug/ml.
Test [18] is described as follows: Inhibition of RNA polymerase.

In general, IC50 refers to the concentration at which inhibition is half-maximal. Lower therefore signals inhibition by little substance. What is called inhibition is the change of the read-out against control, counted positive when it falls. Read a high inhibition as a response far below the control.

SMILES strings stand for the structures.

For the molecule `C=C(C)[C@@H]1CC[C@@H]2[C@]3(CC[C@]4(C)[C@@H]([C@H](C)CC/C=C(/C)C(=O)O)CC[C@@]24C)C[C@]13CCC(=O)O` [NIGRANOIC ACID], the IC50 in [1] was 16.6 µM; in test [4], 356 µM; in [5], 40.6 µM; in [6], 159 µM; in [8] it was 388 µM; in [14] it was more than 425 µM. Further, the IC50 in test [15] is 242 µM; in test [16] it was more than 425 µM; in test [18], 188 µM. For the same molecule, the inhibition came out at 46.2% in test [2]; 75.4% in test [3]; 71% in [7]; 96.7% in [9]; 6.8% in [10]; 99.4% in test [11]. For the same molecule, the inhibition in test [12] was 99.1%; in test [13], 99.2%; in test [17], 76.7%.

The values are drawn from ChEMBL document CHEMBL1158221, “Nigranoic acid, a triterpenoid from Schisandra sphaerandra that inhibits HIV-1 reverse transcriptase” (J Nat Prod, 1996).
